The test addresses T1, human PAH with the R408W mutation (A375 R408W cells) (Homo sapiens, UniProt P00439, R408W).
T1 construct: expressed in transfected cells
T1 sequence (P00439 1-452 R408W): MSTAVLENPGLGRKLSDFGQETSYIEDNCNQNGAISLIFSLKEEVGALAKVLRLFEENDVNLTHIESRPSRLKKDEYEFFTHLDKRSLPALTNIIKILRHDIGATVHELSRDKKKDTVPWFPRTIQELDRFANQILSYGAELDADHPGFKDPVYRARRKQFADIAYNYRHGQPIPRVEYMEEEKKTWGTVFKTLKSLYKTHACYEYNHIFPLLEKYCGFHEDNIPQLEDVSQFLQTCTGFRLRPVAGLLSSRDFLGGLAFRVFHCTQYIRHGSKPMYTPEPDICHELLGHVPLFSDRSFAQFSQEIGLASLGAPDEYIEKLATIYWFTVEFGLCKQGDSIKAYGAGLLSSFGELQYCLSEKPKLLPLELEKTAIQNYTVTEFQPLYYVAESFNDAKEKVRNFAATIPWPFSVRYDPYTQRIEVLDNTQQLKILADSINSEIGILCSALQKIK
Briefly: Cell Based Phenylalanine Flux Assay. Particulars: A375 R408W cells; 24 hrs with compound, then 20 μM sepiapterin and 800 μM 13C9,15N-Phenylalanine for 4 hours; 13C-Tyrosine by LC-MS; average where tested multiple times. In outline:
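LC-MS quantitation of 13C-tyrosine in media gave AC50 values. Stable A375 R408W PAH cells were preincubated 24 h with compound, then fed 800 μM labelled Phe plus 20 μM sepiapterin for 4 h. Dose curves were 10-point, tested in duplicate, averaged over repeat runs.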
With `Cc1ccc2oc([C@H]3c4nc[nH]c4CCN3C(=O)c3oc(C(C)(C)O)nc3C)nc2c1` [Example 332, (R)-(2-(2-hydroxypropan-2-yl)-4-methyloxazol-5-yl)(4-(5-methylbenzo[d]oxazol-2-yl)-6,7-dihydro-1H-imidazo[4,5-c]pyridin-5(4H)-yl)methanone], the half-maximal activity concentration (AC50) is 1000 to 5000 nM.
As for `O=C(c1nnc(-c2ccccn2)o1)N1CCc2[nH]cnc2[C@H]1c1nc2c(F)cccc2o1` [Example 333, (S)-(4-(4-fluorobenzo[d]oxazol-2-yl)-6,7-dihydro-1H-imidazo[4,5-c]pyridin-5(4H)-yl)(5-(pyridin-2-yl)-1,3,4-oxadiazol-2-yl)methanone], the AC50 is not above 500 nM.
For the compound `O=C(c1nnc(-c2ccccn2)o1)N1CCc2[nH]cnc2[C@@H]1c1nc2c(F)cccc2o1` [Example 334, (R)-(4-(4-fluorobenzo[d]oxazol-2-yl)-6,7-dihydro-1H-imidazo[4,5-c]pyridin-5(4H)-yl)(5-(pyridin-2-yl)-1,3,4-oxadiazol-2-yl)methanone], the half-maximal activity concentration (AC50) lay within 1000 to 5000 nM.
As to `O=C(c1nnc(-c2ccccn2)o1)N1CCc2[nH]cnc2[C@H]1c1nc2cccc(F)c2o1` [Example 335, (S)-(4-(7-fluorobenzo[d]oxazol-2-yl)-6,7-dihydro-1H-imidazo[4,5-c]pyridin-5(4H)-yl)(5-(pyridin-2-yl)-1,3,4-oxadiazol-2-yl)methanone], the concentration at half-maximal activity (AC50) was not above 500 nM.
For `O=C(c1nnc(-c2ccccn2)o1)N1CCc2[nH]cnc2[C@@H]1c1nc2cccc(F)c2o1` [Example 336, (R)-(4-(7-fluorobenzo[d]oxazol-2-yl)-6,7-dihydro-1H-imidazo[4,5-c]pyridin-5(4H)-yl)(5-(pyridin-2-yl)-1,3,4-oxadiazol-2-yl)methanone], the concentration at half-maximal activity (AC50) is 500 to 1000 nM.
Turning to `Cn1ccc(-c2nnc(C(=O)N3CCc4[nH]cnc4[C@H]3c3nc4cccc(F)c4o3)o2)n1` [Example 337, (S)-(4-(7-fluorobenzo[d]oxazol-2-yl)-6,7-dihydro-1H-imidazo[4,5-c]pyridin-5(4H)-yl)(5-(1-methyl-1H-pyrazol-3-yl)-1,3,4-oxadiazol-2-yl)methanone], the AC50 is not above 500 nM.
With `Cn1ccc(-c2nnc(C(=O)N3CCc4[nH]cnc4[C@@H]3c3nc4cccc(F)c4o3)o2)n1` [Example 338, (R)-(4-(7-fluorobenzo[d]oxazol-2-yl)-6,7-dihydro-1H-imidazo[4,5-c]pyridin-5(4H)-yl)(5-(1-methyl-1H-pyrazol-3-yl)-1,3,4-oxadiazol-2-yl)methanone] the figure was 500 to 1000 nM; with `COc1ccc2oc([C@@H]3c4nc[nH]c4CCN3C(=O)c3oc(C(C)(C)O)nc3C(F)F)nc2c1` [Example 339, (S)-(4-(difluoromethyl)-2-(2-hydroxypropan-2-yl)oxazol-5-yl)(4-(5-methoxybenzo[d]oxazol-2-yl)-6,7-dihydro-1H-imidazo[4,5-c]pyridin-5(4H)-yl)methanone], 500 to 1000 nM.
`COc1ccc2oc([C@H]3c4nc[nH]c4CCN3C(=O)c3oc(C(C)(C)O)nc3C(F)F)nc2c1` [Example 340, (R)-(4-(difluoromethyl)-2-(2-hydroxypropan-2-yl)oxazol-5-yl)(4-(5-methoxybenzo[d]oxazol-2-yl)-6,7-dihydro-1H-imidazo[4,5-c]pyridin-5(4H)-yl)methanone]: the half-maximal activity concentration (AC50) is 1000 to 5000 nM.
Regarding `COc1ccc2oc([C@@H]3c4nc[nH]c4CCN3C(=O)c3ocnc3C(F)F)nc2c1` [Example 341, (S)-(4-(difluoromethyl)oxazol-5-yl)(4-(5-methoxybenzo[d]oxazol-2-yl)-6,7-dihydro-1H-imidazo[4,5-c]pyridin-5(4H)-yl)methanone], the AC50 was not above 500 nM.
On to `COc1ccc2oc([C@H]3c4nc[nH]c4CCN3C(=O)c3ocnc3C(F)F)nc2c1` [Example 342, (R)-(4-(difluoromethyl)oxazol-5-yl)(4-(5-methoxybenzo[d]oxazol-2-yl)-6,7-dihydro-1H-imidazo[4,5-c]pyridin-5(4H)-yl)methanone], for which the concentration at half-maximal activity (AC50) fell in the range of 500 to 1000 nM.
As to `Cn1nc(Cl)nc1C(=O)N1CCc2[nH]cnc2[C@H]1c1nc2ccc(F)cc2o1` [Example 343, (S)-(3-chloro-1-methyl-1H-1,2,4-triazol-5-yl)(4-(6-fluorobenzo[d]oxazol-2-yl)-6,7-dihydro-1H-imidazo[4,5-c]pyridin-5(4H)-yl)methanone], the concentration at half-maximal activity (AC50) lay in the range of 1000 to 5000 nM.
Take `CC(C)(O)c1nc(C(F)F)c(C(=O)N2CCc3[nH]cnc3[C@H]2c2nc3c(F)ccc(F)c3o2)o1` [Example 345, (S)-(4-(4,7-difluorobenzo[d]oxazol-2-yl)-6,7-dihydro-1H-imidazo[4,5-c]pyridin-5(4H)-yl)(4-(difluoromethyl)-2-(2-hydroxypropan-2-yl)oxazol-5-yl)methanone]: the AC50 was not above 500 nM.
Take `CC(C)(O)c1nc(C(F)F)c(C(=O)N2CCc3[nH]cnc3[C@@H]2c2nc3c(F)ccc(F)c3o2)o1` [Example 346, (R)-(4-(4,7-difluorobenzo[d]oxazol-2-yl)-6,7-dihydro-1H-imidazo[4,5-c]pyridin-5(4H)-yl)(4-(difluoromethyl)-2-(2-hydroxypropan-2-yl)oxazol-5-yl)methanone]: the AC50 is 1000 to 5000 nM.
For the compound `CC(C)(O)c1nc(C(F)F)c(C(=O)N2CCc3[nH]cnc3[C@H]2c2nc3c(F)c(F)ccc3o2)o1` [Example 347, (S)-(4-(4,5-difluorobenzo[d]oxazol-2-yl)-6,7-dihydro-1H-imidazo[4,5-c]pyridin-5(4H)-yl)(4-(difluoromethyl)-2-(2-hydroxypropan-2-yl)oxazol-5-yl)methanone], the AC50 fell in the range of 500 to 1000 nM.
With `CC(C)(O)c1nc(C(F)F)c(C(=O)N2CCc3[nH]cnc3[C@@H]2c2nc3c(F)c(F)ccc3o2)o1` [Example 348, (R)-(4-(4,5-difluorobenzo[d]oxazol-2-yl)-6,7-dihydro-1H-imidazo[4,5-c]pyridin-5(4H)-yl)(4-(difluoromethyl)-2-(2-hydroxypropan-2-yl)oxazol-5-yl)methanone] the figure was 1000 to 5000 nM; with `O=C(c1ocnc1C(F)F)N1CCc2[nH]cnc2[C@@H]1c1nc2c(F)c(F)ccc2o1` [Example 349, (R)-(4-(4,5-difluorobenzo[d]oxazol-2-yl)-6,7-dihydro-1H-imidazo[4,5-c]pyridin-5(4H)-yl)(4-(difluoromethyl)oxazol-5-yl)methanone], 500 to 1000 nM; with `O=C(c1ocnc1C(F)F)N1CCc2[nH]cnc2[C@H]1c1nc2c(F)c(F)ccc2o1` [Example 350, (S)-(4-(4,5-difluorobenzo[d]oxazol-2-yl)-6,7-dihydro-1H-imidazo[4,5-c]pyridin-5(4H)-yl)(4-(difluoromethyl)oxazol-5-yl)methanone], not above 500 nM.
As to `CC(C)(O)c1nc(C(F)F)c(C(=O)N2CCc3[nH]cnc3[C@H]2c2nc3cc(OC(F)(F)F)ccc3o2)o1` [Example 351, (S)-(4-(difluoromethyl)-2-(2-hydroxypropan-2-yl)oxazol-5-yl)(4-(5-(trifluoromethoxy)benzo[d]oxazol-2-yl)-6,7-dihydro-1H-imidazo[4,5-c]pyridin-5(4H)-yl)methanone], the AC50 is not above 500 nM.
Consider `CC(C)(O)c1nc(C(F)F)c(C(=O)N2CCc3[nH]cnc3[C@@H]2c2nc3cc(OC(F)(F)F)ccc3o2)o1` [Example 352, (R)-(4-(difluoromethyl)-2-(2-hydroxypropan-2-yl)oxazol-5-yl)(4-(5-(trifluoromethoxy)benzo[d]oxazol-2-yl)-6,7-dihydro-1H-imidazo[4,5-c]pyridin-5(4H)-yl)methanone], for which the AC50 lay in the range of 500 to 1000 nM.
With `O=C(c1ocnc1C(F)F)N1CCc2[nH]cnc2[C@@H]1c1nc2cc(OC(F)(F)F)ccc2o1` [Example 353, (R)-(4-(difluoromethyl)oxazol-5-yl)(4-(5-(trifluoromethoxy)benzo[d]oxazol-2-yl)-6,7-dihydro-1H-imidazo[4,5-c]pyridin-5(4H)-yl)methanone] the figure was not above 500 nM.
As for `O=C(c1ocnc1C(F)F)N1CCc2[nH]cnc2[C@H]1c1nc2cc(OC(F)(F)F)ccc2o1` [Example 354, (S)-(4-(difluoromethyl)oxazol-5-yl)(4-(5-(trifluoromethoxy)benzo[d]oxazol-2-yl)-6,7-dihydro-1H-imidazo[4,5-c]pyridin-5(4H)-yl)methanone], the concentration at half-maximal activity (AC50) was not above 500 nM.
On to `Cc1ccc2oc([C@@H]3c4nc[nH]c4CCN3C(=O)c3nnc(-c4cc[nH]n4)o3)nc2c1` [Example 355, (S)-(5-(1H-pyrazol-3-yl)-1,3,4-oxadiazol-2-yl)(4-(5-methylbenzo[d]oxazol-2-yl)-6,7-dihydro-1H-imidazo[4,5-c]pyridin-5(4H)-yl)methanone], for which the concentration at half-maximal activity (AC50) was in the range of 500 to 1000 nM.
Turning to `Cc1ccc2oc([C@H]3c4nc[nH]c4CCN3C(=O)c3nnc(-c4cc[nH]n4)o3)nc2c1` [Example 356, (R)-(5-(1H-pyrazol-3-yl)-1,3,4-oxadiazol-2-yl)(4-(5-methylbenzo[d]oxazol-2-yl)-6,7-dihydro-1H-imidazo[4,5-c]pyridin-5(4H)-yl)methanone], the AC50 lay within 1000 to 5000 nM.
As to `Cc1ccc2nc([C@@H]3c4nc[nH]c4CCN3C(=O)c3nnc(-c4ccn(C)n4)o3)oc2c1` [Example 357, (S)-(5-(1-methyl-1H-pyrazol-3-yl)-1,3,4-oxadiazol-2-yl)(4-(6-methylbenzo[d]oxazol-2-yl)-6,7-dihydro-1H-imidazo[4,5-c]pyridin-5(4H)-yl)methanone], the AC50 is 500 to 1000 nM.

The AC50 is the concentration giving half of the maximal activity seen.

Source of the values: US20250171437A1 (Agios Pharmaceuticals,Inc., priority 2022, published 2025).
